{"source": "patent US20260144766A1", "about": "“USE OF CANNABINOID 1 RECEPTOR AGONIST ARACHIDONOYL CYCLOPROPYLAMIDE (ACPA) IN NON SMALL CELL LUNG CANCER” (HACETTEPE UNIVERSITESI, priority 2019, published 2026)", "key": {"[1]": {"tested_on": "A549 cells", "experiment": "WST-1 proliferation analysis, A549", "format": "cell-based", "from_the_text": "(§1) 1.2. Evaluation of the Dose- and Time-Dependent Effect of ACPA to Cancer Cell Proliferation by WST-1 Technique"}, "[2]": {"tested_on": "H1299 cells", "experiment": "WST-1 proliferation analysis, H1299", "format": "cell-based", "conditions": "all doses, days 1, 2 and 3, p<0.05", "from_the_text": "as §1"}, "[3]": {"tested_on": "H358 cells", "experiment": "WST-1 proliferation analysis, H358", "format": "cell-based", "conditions": "p<0.05", "from_the_text": "as §1"}, "[4]": {"tested_on": "H838 cells", "experiment": "WST-1 proliferation analysis, H838", "format": "cell-based", "conditions": "p<0.05", "from_the_text": "as §1"}, "[5]": {"tested_on": "A549 cells", "experiment": "Real time impedance-based proliferation analysis, A549", "format": "cell-based", "experimental": "(§2) 1.3. Evaluation of the Effect of ACPA against Cancer Cell Proliferation by Real Time Impedance-Based Proliferation Analysis\n(§3) ACPA has been applied between this dose range (10^−9, 10^−10, 10^−11 and 10^−12 M) during the real time impedance-based proliferation analysis. After the cells are seeded when the cell indices reach 1.0, ACPA dose range has been applied. The graph has been normalized from the point where the cell indices reached 1.0 and ACPA application has been carried out at different doses. […] After ACPA has been added at the determined dose range, it has led to reduction in the proliferation of H1299 cells as of the 66th hour."}, "[6]": {"tested_on": "H1299 cells", "experiment": "Real time impedance-based proliferation analysis, H1299", "format": "cell-based", "experimental": "as §2, §3"}, "[7]": {"tested_on": "H358 cells", "experiment": "Real time impedance-based proliferation analysis, H358", "format": "cell-based"}, "[8]": {"tested_on": "H838 cells", "experiment": "Real time impedance-based proliferation analysis, H838", "format": "cell-based", "experimental": "as §2, §3"}, "[9]": {"tested_on": "A549, H1299, H358 and H838 cells", "experiment": "Efficient dose range over the 4 non-small cell lung cancer lines (WST-1 and real time impedance-based analysis)", "conditions": "4 cell lines A549, H1299, H358 and H838", "experimental": "as §3\nWithin the scope of the research, the efficient dose and time of the CB1 receptor agonist ACPA has been calculated using the WST-1 and real time impedance-based proliferation analysis method on the examined 4 different non-small cell lung cancer lines."}, "[10]": {"conditions": "normalized cell index vs log ACPA concentration, read-out: antiproliferative IC50"}, "[11]": {"conditions": "dose ranges applied, depending on time"}}, "note": "Entries after “also recorded” stand apart in the source; their conditions may differ."}
{"smiles": "CCCCC/C=C\\C/C=C\\C/C=C\\C/C=C\\CCCC(=O)NC1CC1", "note": "[ACPA, Arachidonoyl cyclopropylamide]", "values": [{"measurement": "proliferation vs control group (WST-1 absorbance)", "setting": "[1]; day 1, doses 10^−12, 10^−11, 10^−10 and 10^−9 M, p<0.05", "value": "statistically significantly reduced"}, {"measurement": "antiproliferative effect (WST-1)", "setting": "[1]; second and 3rd days, doses applied", "value": "antiproliferative effect was not observed"}, {"measurement": "antiproliferative effect (WST-1)", "setting": "[2]", "value": "significant antiproliferative effect; also recorded: Antiproliferative effect has been observed"}, {"measurement": "antiproliferative effect (WST-1)", "setting": "[3]; 2nd day, all doses", "value": "Antiproliferative effect was seen"}, {"measurement": "antiproliferative effect (WST-1)", "setting": "[3]; day 1, doses 10^−10, 10^−8, 10^−7 and 10^−6 M", "value": "antiproliferative effect of ACPA was observed"}, {"measurement": "proliferation vs control group (WST-1)", "setting": "[4]; 2nd day, 10^−9 M", "value": "antiproliferative effect; also recorded: reduced the proliferation of H838 cells statistically significantly"}, {"measurement": "proliferation vs control group (WST-1)", "setting": "[4]; 3rd day, 10^−9 and 10^−12 M", "value": "antiproliferative effect; also recorded: reduced the proliferation of H838 cells statistically significantly"}, {"measurement": "proliferation (normalized cell index)", "setting": "[5]; ACPA 10^−9 to 10^−12 M", "value": "not exhibited a significant change"}, {"measurement": "efficient dose, effect seen on the 48th hour", "setting": "[5]; WST-1 and impedance analysis", "value": 1.39, "unit": "pM"}, {"measurement": "IC50", "setting": "[5]; [10]", "value": 1.39, "unit": "pM"}, {"measurement": "proliferation in comparison to the control group (impedance)", "setting": "[6]; 1.39×10^−12 M ACPA (free or released from nanoparticles), 48 and 72nd hours, p<0.05", "value": "significant reduction has been observed"}, {"measurement": "proliferation (normalized cell index)", "setting": "[6]; 10^−11 M, as of the 66th hour, p<0.05", "value": "significantly reduced the proliferation of cells"}, {"measurement": "proliferation (normalized cell index)", "setting": "[6]; 10^−12, 10^−10 and 10^−9 M, after the 86th hour, p<0.05", "value": "significantly reduced the proliferation of cells"}, {"measurement": "efficient dose, effect seen on the 48th hour", "setting": "[6]; WST-1 and impedance analysis", "value": 1.39, "unit": "pM"}, {"measurement": "proliferation (normalized cell index)", "setting": "[6]; [11]", "value": "reduced the proliferation"}, {"measurement": "IC50", "setting": "[6]; [10]", "value": 1.39, "unit": "pM"}, {"measurement": "efficient dose, effect seen on the 48th hour", "setting": "[7]; WST-1 and impedance analysis", "value": 1.39, "unit": "pM"}, {"measurement": "proliferation (normalized cell index)", "setting": "[7]; [11]", "value": "reduced the proliferation"}, {"measurement": "IC50", "setting": "[7]; [10]", "value": 1.38, "unit": "pM"}, {"measurement": "proliferation in comparison to the control group (impedance)", "setting": "[8]; 1.39×10^−12 M ACPA, 190th hour, p<0.05", "value": "statistically significant reduction"}, {"measurement": "proliferation vs control group (normalized cell index)", "setting": "[8]; ACPA doses, following the 30th hour, p<0.05", "value": "significantly reduced the proliferation of cells"}, {"measurement": "efficient dose, effect seen on the 48th hour", "setting": "[8]; WST-1 and impedance analysis", "value": 34.7, "unit": "pM"}, {"measurement": "proliferation (normalized cell index)", "setting": "[8]; [11]", "value": "reduced the proliferation"}, {"measurement": "IC50", "setting": "[8]; [10]", "value": 34.7, "unit": "pM"}, {"measurement": "dose range found to be efficient in WST-1 analysis", "setting": "[9]", "value": "10^−12-10^−9 M"}]}
